# Data as given in US20130143825A1, “COMPOUNDS FOR USE IN THE TREATMENT OF DISEASES BASED ON THE EXPRESSION OF TOXIC TRANSCRIPTS” (UNIVERSITAT DE VALENCIA, priority 2010, published 2013).
# Non-standard residues stand in square brackets, D forms with d. Residues, ends and D or L forms follow the SMILES beside them. No end group written: not given here.
# What was measured:
# FVB wild strain mice = test: Toxicity of p10 in mammals, intramuscular injection; assay type: in vivo
# Description: In order to study the possible toxic effect of p10 in mammals and establishing the maximum tolerable dose for subsequent assays, the peptide was administered to mice from the FVB wild strain. Due to the low absorption of peptides by the intestinal walls, it was decided to perform intramuscular injections in the anterior tibial muscle of animals 4-5 weeks of age, using four different doses (0.5 μg, 1 μg, 10 μg and 100 μg), with a total of 6 mice per dose (3 females and 3 males). 4 weeks after the injection, the animals were sacrificed and a visual autopsy was performed, jointly with a histomorphological study of the muscle and a blood test (FIG. 31). As a control, animals injected with the same quantity of DMSO (0.2% for the 0.5-μg and 1-μg doses, and 2% for the 10-μg and 100-μg doses) were used.
# However, the blood tests did show differences between the treated animals and the control. As a marker of renal activity, we measured the quantity of […], urea and creatinine in the blood. The creatine phosphokinase (CPK) enzyme was used as a marker of damage to the skeletal muscle and the heart, and alkaline phosphatase (AP), gamma-glutamyl transpeptidase (GGT) and glutamate pyruvate transaminase (GPT) were used as markers of hepatic damage. […] This could be due to the toxicity of DMSO or to the injection itself. […] Urea is the final result of protein metabolism. It is formed in the liver and eliminated in the urine. If the kidney is not functioning correctly, urea accumulates in the blood. GPT is an enzyme that is present in the liver at a high concentration and, to a lower extent, in the kidneys, the heart and the muscles. When there is an injury in these organs, the enzyme is released into the blood and appears high in tests. Moreover, it is worth noting that two of the mice treated with the 100-μg dose died approximately 11 days after the injection (p/i), which confirms the toxicity of p10 when it exceeds a threshold value. It was possible to extract blood from one of these two animals just before it died.
# [1] = system: 103Y-Gal4/+;UAS-CTG(480)/+ flies; test: Lethality phenotype in pupae caused by expression of 480 CTG under 103Y-Gal4 (females born); assay type: in vivo, Drosophila; parameters: key to Treated born/Control born: —: - indicates that no females were born, in neither the control tubes and the treated tubes; settings: 80 μM; females born vs DMSO control; * p-value <0.05
# Description: The 120 vials that make up the chemical library were individually assayed on the lethality phenotype in pupae caused by the expression of 480 CTG under the control of 103Y-Gal4 at a concentration of 80 μM. […] Thus, for positions O1, O2, O3, O4, O5 and O6 of the hexapeptide, a total of six, three, six, four, two and seven active amino acids were obtained, respectively (FIG. 2A). In order to perform the deconvolution, 10 of these 28 amino acids were selected, on the basis of their degree of activity in the biological assay (FIG. 2A). Finally, of the possible combinations, 16 sequences were selected to perform the synthesis of the defined hexapeptides (FIG. 2B). The selection of these 16 peptides was based on redundancy criteria between the physical and chemical properties of active amino acids in similar positions.
# At 250 μM, the activity of the peptide decreased, possibly due to a toxic effect of the peptide at higher concentrations.
# In order to determine the contribution of each of the p10 residues to their activity on CTG(480), an alanine scanning experiment was performed. These experiments are based on substituting every amino acid of the peptide with alanine and keeping the rest. Alanine is a small amino acid and, in general, not very active; this is why it is used for this type of studies. Since each alanine substitution examines the contribution of an individual amino acid, this experiment makes it possible, on the one hand, to evaluate whether p10 is susceptible to optimisation (in the event that a substitution increases the efficacy of the molecule), or to determine which amino acids are important for its function (in the event that a substitution decreases the activity thereof). The sequence of p10 allows for 5 substitutions; for this reason, 5 new hexapeptides were synthesised which were assayed in relation to the lethality phenotype in 103Y-Gal4; UAS-CTG(480)/+ flies and commercial food.
# [2] = system: 103Y-Gal4/+;UAS-CTG(480)/+ flies; test: as above; assay type: in vivo, Drosophila; parameters: key: —: - indicates that no females were born, in neither the control tubes and the treated tubes; settings: females born vs DMSO control
# 2-AP-(CUG)23 RNA = test: 2-aminopurine fluorescence assay (hairpin opening); assay type: biochemical; settings: 100 μM
# Description: Measurements of the fluorescence emitted (Y-axis), measured as relative fluorescence units (RFU), by 2-aminopurine in a (CUG)23 RNA (1 μM) in the presence of MblZF (0.1 μM, 1 μM, 2 μM and 5 μM) (A) or p10 (0.1 μM, 1 μM, 2 μM, 5 μM and 100 μM) (B), relative to the fluorescence emitted by the free RNA. p10 caused a 2.9-increase in the fluorescence of 2-AP at 100 μM, which indicates a change towards single-stranded. This effect was not observed when incubating the RNA with DMSO, or with the alanine scanning peptides with sequences: ppyawa and payawe (C).
# In order to confirm whether said changes cause a loss of the hairpin loop structure, an experiment was performed using an RNA composed of 23 CUG repeats, wherein a guanine had been substituted with its analogue 2-aminopurine (2-AP-(CUG)23). When 2-AP is in a single-stranded environment, it emits fluorescence at 375 nm. […] However, upon increasing the concentration of p10 to 100 μM (RNA:peptide 1:100), the 2AP-(CUG)23 RNA underwent a conformational change, from double-stranded to single-stranded, with a 2.9-fold increase in the fluorescence emission of the molecule (FIG. 28B). In order to confirm the specificity of this effect, the same experiment was performed, incubating the alanine scanning peptides (payawe and ppyawa) with the 2-AP-(CUG)23 RNA at the same concentration as p10 (100 μM).
# As may be observed in FIG. 29, in this example we use the 2-aminopurine assay in order to assay 4 peptides (p11, p5, p12 and p15) in addition to p10, obtained from the deconvolution of the combinatorial peptide library explained in this invention. […] The concentration used in all cases is 100 μM.
# [3] = system: GMR-Gal4 UAS-CTG(480) flies; test: Endogenous expression of p10-derived peptides (Gal4/UAS), rough eye phenotype; assay type: in vivo, Drosophila
# Excerpt: Thus, three different transgenes were designed, with SEQ ID NO: 17-19 (p17-p19), which encoded different peptides, all based on sequence SEQ ID NO: 10 corresponding to p10 (FIG. 9), taking into consideration the codon usage bias in Drosophila (i.e. favouring the use of G, and in particular C, in the synonymous sites; Powell & Moriyama, 1997) and adding an initial Methionine, as well as three spacer Glycines, to sequence SEQ ID NO: 10. Moreover, upstream from the […] initiation codon, 21 nucleotides of the 5′UTR end of the act5C gene of Drosophila which included the Kozak sequence were added, in order to enhance the expression of the transgenes.
# p17 contained the direct sequence of the peptide of SEQ ID NO: 10. As discussed above, the peptides in the hexapeptide chemical library are composed of D-amino acids. The D-forms (dextrogyre) of amino acids are stereoisomers of the L-forms (levogyres) and only L-amino acids are synthesised in the cells and incorporated into proteins. Consequently, if the arrangement of the lateral chains of p10 is important for the function thereof, the latter would be lost when p17 is synthesised by Drosophila from L-aa. For this reason, it was decided to generate construct p18, wherein the peptide sequence of SEQ ID NO: 10 was inverted, leading to a retro-inverse peptide (Chorev & Goodman, 1995; P. M. Fischer, 2003). At the time when these transgenes were generated, the smallest constructs described in the literature encoded peptides with more than 20 amino acids, which is more than twice the size of peptides p17 and p18 (which have only ten amino acids). For this reason, construct p19 was generated, which combined the constructs of peptides p17 and p18, leading to a peptide with 19 amino acids. The three constructs were microinjected in the precursors of the germinal line of Drosophila embryos, leading to 10 lines of transgenic flies for each transgene.
# The transgenic flies obtained were crossed with the GMR-Gal4 UAS-CTG(480)/CyO and Mhc-Gal4 UAS-CTG(480)/TM6b recombinant fly lines generated during this invention, which directed the expression of the CTG repeats in the eye and the muscle, respectively. As in the case of the sev-Gal4 UAS-CTG(480)/+ flies, the adult GMR-Gal4 UAS-CTG(480)/UAS-GFP flies presented a strong rough eye phenotype. […] However, the opposite phenomenon occurred at 25° C. and at 29° C. […] Given that changes in temperature affect the expression of the CTG(480) transgenes and peptides p17-p19 in a different manner, since the latter are inserted in different regions of the genome, there may be a relation between the quantity of peptide and of repeats that must be reached, whereafter p10 becomes toxic.
# [4] = 100-μg dose, one mouse just before it died
compound,measurement,setting,value
C[C@@H](NC(=O)[C@@H](Cc1ccc(O)cc1)NC(=O)[C@H]1CCCN1C(=O)[C@H]1CCCN1)C(=O)N[C@H](Cc1c[nH]c2ccccc12)C(=O)N[C@H](CCC(=O)O)C(=O)O [p10] (H-[dP][dP][dY][dA][dW][dE]-OH),visual autopsy and histological analysis of the muscles vs DMSO controls,"FVB wild strain mice; 0.5, 1, 10, 100 μg i.m., 4 weeks after injection",did not reveal significant differences
same,urea and GPT in the blood vs controls,FVB wild strain mice; 10-μg and 100-μg doses i.m.,even higher values of urea and GPT
same,time of death after the injection,FVB wild strain mice; 100-μg dose,approximately 11 days
same,mice that died,"FVB wild strain mice; 100-μg dose, 6 mice per dose",two
same,"CPK in blood, times greater than the control with DMSO",FVB wild strain mice; [4],15 times
same,"CPK in blood, times greater than the upper limit of the standard values",FVB wild strain mice; [4],28 times
same,"urea, creatinine, CPK and GGT in the blood",FVB wild strain mice; [4],extremely high values
p1: defined hexapeptide obtained following deconvolution of the D-amino acid combinatorial library ([dC][dP][dY][dA][dQ][dE]),Treated born/Control born,[1],0.3
p2: defined hexapeptide obtained following deconvolution of the D-amino acid combinatorial library ([dC][dP][dY][dA][dW][dE]),Treated born/Control born,[1],—
p3: defined hexapeptide obtained following deconvolution of the D-amino acid combinatorial library ([dC][dP][dY][dT][dQ][dE]),Treated born/Control born,[1],0.8
p4: defined hexapeptide obtained following deconvolution of the D-amino acid combinatorial library ([dC][dP][dY][dT][dW][dE]),Treated born/Control born,[2]; 62 μM,—
p6: defined hexapeptide obtained following deconvolution of the D-amino acid combinatorial library ([dC][dQ][dY][dA][dW][dE]),Treated born/Control born,[2]; 25 μM,—
p7: defined hexapeptide obtained following deconvolution of the D-amino acid combinatorial library ([dC][dQ][dY][dT][dQ][dE]),Treated born/Control born,[1],1.4
p8: defined hexapeptide obtained following deconvolution of the D-amino acid combinatorial library ([dC][dQ][dY][dT][dW][dE]),Treated born/Control born,[2]; 57 μM,0.9
p9: defined hexapeptide obtained following deconvolution of the D-amino acid combinatorial library ([dP][dP][dY][dA][dQ][dE]),Treated born/Control born,[1],2.0
p11: defined hexapeptide obtained following deconvolution of the D-amino acid combinatorial library ([dP][dP][dY][dT][dQ][dE]),Treated born/Control born,[1],0.8
same,"destructuration of CUG23 probe, comparative 2-aminopurine assay",2-AP-(CUG)23 RNA,significant levels of specificity and efficacy
p12: defined hexapeptide obtained following deconvolution of the D-amino acid combinatorial library ([dP][dP][dY][dT][dW][dE]),Treated born/Control born,[1],3.0
same,"destructuration of CUG23 probe, comparative 2-aminopurine assay",2-AP-(CUG)23 RNA,significant levels of specificity and efficacy
p13: defined hexapeptide obtained following deconvolution of the D-amino acid combinatorial library ([dP][dQ][dY][dA][dQ][dE]),Treated born/Control born,[1],0.8
p14: defined hexapeptide obtained following deconvolution of the D-amino acid combinatorial library ([dP][dQ][dY][dA][dW][dE]),Treated born/Control born,[2]; 40 μM,1.8
p16: defined hexapeptide obtained following deconvolution of the D-amino acid combinatorial library ([dP][dQ][dY][dT][dW][dE]),Treated born/Control born,[2]; 38.5 μM,0.4
"p17: endogenously expressed ten amino acid peptide: initial Methionine, three spacer Glycines and the direct sequence of p10 (MGGGPPYAWE)",rough eye phenotype on co-expression with CTG(480),[3]; 19° C. and 21° C.,not
same,transgenic lines assayed that modified the phenotype of GMR-Gal4 UAS-CTG(480) flies,[3]; in vivo,none of the five lines
